# Measurements as given in PubChem BioAssay (NCI).
#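 The compound was tested at five concentrations on cells cultured in 96-well plates, with a 48-hour exposure period. Definition used: TGI = concentration required for complete inhibition of growth.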
# Legend:
# Assay in all cases: inhibition of tumour cell growth, NCI panel, 48 h
# SN12C renal = test system: SN12C renal
# LOX IMVI melanoma = test system: LOX IMVI melanoma
# TK-10 renal = test system: TK-10 renal
# NCI-H226 lung = test system: NCI-H226 lung
# M14 melanoma = test system: M14 melanoma
# MDA-MB-231 breast = test system: MDA-MB-231 breast
# BT-549 breast = test system: BT-549 breast
# UACC-257 melanoma = test system: UACC-257 melanoma
# SW-620 colon = test system: SW-620 colon
# NCI-H522 lung = test system: NCI-H522 lung
# CCRF-CEM leukemia = test system: CCRF-CEM leukemia
# 786-0 renal = test system: 786-0 renal
# RPMI-8226 leukemia = test system: RPMI-8226 leukemia
# CAKI-1 renal = test system: CAKI-1 renal
# HS 578T breast = test system: HS 578T breast
smiles,measurement,setting,value
CC(C)(C)c1cc(C(=O)/C=C/C=C/c2ccccc2)cc(C(C)(C)C)c1O,TGI,SN12C renal,77.3 µM
same,TGI,LOX IMVI melanoma,50.9 µM
same,TGI,TK-10 renal,59.2 µM
same,TGI,NCI-H226 lung,77.2 µM
same,TGI,M14 melanoma,41.4 µM
same,TGI,MDA-MB-231 breast,49 µM
same,TGI,BT-549 breast,57.2 µM
same,TGI,UACC-257 melanoma,25.4 µM
same,TGI,SW-620 colon,41.4 µM
same,TGI,NCI-H522 lung,52.5 µM
same,TGI,CCRF-CEM leukemia,15.5 µM
same,TGI,786-0 renal,36.1 µM
same,TGI,RPMI-8226 leukemia,29.9 µM
same,TGI,CAKI-1 renal,> 100 µM
same,TGI,HS 578T breast,> 100 µM
CSc1ncnc2c1cnn2CCCCO,TGI,SN12C renal,> 100 µM
same,TGI,LOX IMVI melanoma,> 100 µM
same,TGI,TK-10 renal,> 100 µM
same,TGI,NCI-H226 lung,> 100 µM
same,TGI,M14 melanoma,> 100 µM
same,TGI,MDA-MB-231 breast,> 100 µM
same,TGI,BT-549 breast,> 100 µM
same,TGI,UACC-257 melanoma,> 100 µM
same,TGI,SW-620 colon,> 100 µM
same,TGI,NCI-H522 lung,> 100 µM
same,TGI,CCRF-CEM leukemia,> 100 µM
same,TGI,786-0 renal,> 100 µM
same,TGI,RPMI-8226 leukemia,> 100 µM
same,TGI,CAKI-1 renal,> 100 µM
same,TGI,HS 578T breast,> 100 µM
COc1cc(C2SCC(=O)N2c2ccc(Cl)c(Cl)c2)cc(OC)c1OC (stereo not given),TGI,SN12C renal,> 100 µM
same,TGI,LOX IMVI melanoma,> 100 µM
same,TGI,TK-10 renal,> 100 µM
same,TGI,NCI-H226 lung,> 79.4 µM
same,TGI,M14 melanoma,> 100 µM
same,TGI,MDA-MB-231 breast,> 100 µM
same,TGI,BT-549 breast,98 µM
same,TGI,UACC-257 melanoma,> 100 µM
same,TGI,SW-620 colon,> 100 µM
same,TGI,NCI-H522 lung,> 100 µM
same,TGI,CCRF-CEM leukemia,51.3 µM
same,TGI,786-0 renal,> 100 µM
same,TGI,RPMI-8226 leukemia,> 78.6 µM
same,TGI,CAKI-1 renal,> 100 µM
same,TGI,HS 578T breast,> 100 µM
CC(C)(C)NC(=O)N1N=C(c2ccccc2)C1c1ccccc1 (stereo not given),TGI,SN12C renal,> 100 µM
same,TGI,LOX IMVI melanoma,> 100 µM
same,TGI,TK-10 renal,> 100 µM
same,TGI,NCI-H226 lung,> 100 µM
same,TGI,M14 melanoma,> 100 µM
same,TGI,MDA-MB-231 breast,> 100 µM
same,TGI,BT-549 breast,> 100 µM
same,TGI,UACC-257 melanoma,> 100 µM
same,TGI,SW-620 colon,> 100 µM
same,TGI,NCI-H522 lung,35.5 µM
same,TGI,CCRF-CEM leukemia,> 100 µM
same,TGI,786-0 renal,32 µM
same,TGI,RPMI-8226 leukemia,46 µM
same,TGI,CAKI-1 renal,59.1 µM
same,TGI,HS 578T breast,> 100 µM
O=S(=O)(O)c1ccc(N=Nc2ccc(N=Nc3c(O)ccc4ccccc34)cc2)cc1,TGI,SN12C renal,> 100 µM
same,TGI,LOX IMVI melanoma,> 100 µM
same,TGI,TK-10 renal,> 100 µM
same,TGI,NCI-H226 lung,> 100 µM
same,TGI,M14 melanoma,> 100 µM
same,TGI,MDA-MB-231 breast,> 100 µM
same,TGI,BT-549 breast,> 100 µM
same,TGI,UACC-257 melanoma,> 100 µM
same,TGI,SW-620 colon,> 100 µM
same,TGI,NCI-H522 lung,> 100 µM
same,TGI,CCRF-CEM leukemia,> 100 µM
same,TGI,786-0 renal,> 100 µM
same,TGI,RPMI-8226 leukemia,> 100 µM
same,TGI,CAKI-1 renal,> 100 µM
same,TGI,HS 578T breast,> 100 µM
Cc1cc(C)nc(NS(=O)(=O)c2ccc(NNC(=O)c3cccc4c(=O)c5ccccc5[nH]c34)cc2)n1,TGI,SN12C renal,> 100 µM
same,TGI,LOX IMVI melanoma,> 100 µM
same,TGI,TK-10 renal,> 100 µM
same,TGI,NCI-H226 lung,> 100 µM
same,TGI,M14 melanoma,> 100 µM
same,TGI,MDA-MB-231 breast,> 100 µM
same,TGI,BT-549 breast,> 100 µM
same,TGI,UACC-257 melanoma,> 100 µM
same,TGI,SW-620 colon,> 100 µM
same,TGI,NCI-H522 lung,> 100 µM
same,TGI,CCRF-CEM leukemia,> 100 µM
same,TGI,786-0 renal,> 100 µM
same,TGI,RPMI-8226 leukemia,> 100 µM
same,TGI,CAKI-1 renal,> 100 µM
same,TGI,HS 578T breast,> 100 µM
COc1ccc(C(OCC2OC(n3cc(C)c(=O)[nH]c3=O)CC2n2cc(Cn3cc(Br)c(=O)[nH]c3=O)nn2)(c2ccccc2)c2ccccc2)cc1 (stereo not given),TGI,SN12C renal,> 100 µM
same,TGI,LOX IMVI melanoma,> 100 µM
same,TGI,TK-10 renal,> 100 µM
same,TGI,NCI-H226 lung,> 100 µM
same,TGI,M14 melanoma,> 100 µM
same,TGI,MDA-MB-231 breast,> 100 µM
same,TGI,BT-549 breast,> 100 µM
same,TGI,UACC-257 melanoma,> 100 µM
same,TGI,SW-620 colon,> 100 µM
same,TGI,NCI-H522 lung,> 100 µM
same,TGI,CCRF-CEM leukemia,> 100 µM
same,TGI,786-0 renal,> 100 µM
same,TGI,RPMI-8226 leukemia,> 100 µM
same,TGI,CAKI-1 renal,> 100 µM
same,TGI,HS 578T breast,> 100 µM
CC(NNC(=O)CC(=O)N(C(=O)c1ccccc1)c1ccc(Cl)cc1)c1cc2ccccc2oc1=O (stereo not given),TGI,SN12C renal,> 10 µM
same,TGI,LOX IMVI melanoma,> 10 µM
same,TGI,TK-10 renal,> 10 µM
same,TGI,NCI-H226 lung,> 10 µM
same,TGI,M14 melanoma,> 10 µM
same,TGI,MDA-MB-231 breast,> 10 µM
same,TGI,BT-549 breast,> 10 µM
same,TGI,UACC-257 melanoma,> 10 µM
same,TGI,SW-620 colon,> 10 µM
same,TGI,NCI-H522 lung,> 10 µM
same,TGI,CCRF-CEM leukemia,> 10 µM
same,TGI,786-0 renal,> 10 µM
same,TGI,RPMI-8226 leukemia,> 10 µM
same,TGI,CAKI-1 renal,> 10 µM
same,TGI,HS 578T breast,> 10 µM
C[C@H]1C2Cc3cc(N)ccc3[C@@]1(C)CCN2CCc1ccccc1,TGI,SN12C renal,> 100 µM
same,TGI,LOX IMVI melanoma,41.2 µM
same,TGI,TK-10 renal,> 100 µM
same,TGI,NCI-H226 lung,> 100 µM
same,TGI,M14 melanoma,40 µM
same,TGI,MDA-MB-231 breast,> 100 µM
same,TGI,BT-549 breast,> 100 µM
same,TGI,UACC-257 melanoma,> 100 µM
same,TGI,SW-620 colon,> 100 µM
same,TGI,NCI-H522 lung,31.5 µM
same,TGI,CCRF-CEM leukemia,> 100 µM
same,TGI,786-0 renal,> 100 µM
same,TGI,RPMI-8226 leukemia,> 100 µM
same,TGI,CAKI-1 renal,> 100 µM
same,TGI,HS 578T breast,> 100 µM
N#C/C(N)=C(\C#N)NC=NCc1ccccc1,TGI,SN12C renal,> 100 µM
same,TGI,LOX IMVI melanoma,> 100 µM
same,TGI,TK-10 renal,> 100 µM
same,TGI,NCI-H226 lung,> 100 µM
same,TGI,M14 melanoma,> 100 µM
same,TGI,MDA-MB-231 breast,> 100 µM
same,TGI,BT-549 breast,> 100 µM
same,TGI,UACC-257 melanoma,> 100 µM
same,TGI,SW-620 colon,> 100 µM
same,TGI,NCI-H522 lung,> 100 µM
same,TGI,CCRF-CEM leukemia,> 100 µM
same,TGI,786-0 renal,> 100 µM
same,TGI,RPMI-8226 leukemia,> 100 µM
same,TGI,CAKI-1 renal,> 100 µM
same,TGI,HS 578T breast,> 100 µM
CCCCn1c(C)c2c(c1C)C(=O)N(CC(O)CN1CCc3ccccc3C1)C2=O (stereo not given),TGI,SN12C renal,> 100 µM
same,TGI,LOX IMVI melanoma,> 100 µM
same,TGI,TK-10 renal,> 100 µM
same,TGI,NCI-H226 lung,> 100 µM
same,TGI,M14 melanoma,> 100 µM
same,TGI,MDA-MB-231 breast,> 100 µM
same,TGI,BT-549 breast,> 100 µM
same,TGI,UACC-257 melanoma,> 100 µM
same,TGI,SW-620 colon,> 100 µM
same,TGI,NCI-H522 lung,> 100 µM
same,TGI,CCRF-CEM leukemia,> 100 µM
same,TGI,786-0 renal,> 100 µM
same,TGI,RPMI-8226 leukemia,> 100 µM
same,TGI,CAKI-1 renal,> 100 µM
same,TGI,HS 578T breast,> 100 µM
CC(C)=C1C(=O)C[C@]2(C)C[C@H]3/C(=C(/C)CCC12)CC[C@@]3(C)O (stereo not given in full),TGI,SN12C renal,> 50 µM
same,TGI,LOX IMVI melanoma,> 50 µM
same,TGI,TK-10 renal,> 50 µM
same,TGI,NCI-H226 lung,> 50 µM
same,TGI,M14 melanoma,> 50 µM
same,TGI,MDA-MB-231 breast,> 50 µM
same,TGI,BT-549 breast,> 50 µM
same,TGI,UACC-257 melanoma,> 50 µM
same,TGI,SW-620 colon,> 50 µM
same,TGI,NCI-H522 lung,> 50 µM
same,TGI,CCRF-CEM leukemia,> 50 µM
same,TGI,786-0 renal,> 50 µM
same,TGI,RPMI-8226 leukemia,> 50 µM
same,TGI,CAKI-1 renal,> 50 µM
same,TGI,HS 578T breast,> 50 µM
COc1ccc(CN(Cc2ccc(OC)cc2)C(=O)CC2(O)C=CCC2)cc1 (stereo not given),TGI,SN12C renal,> 100 µM
same,TGI,LOX IMVI melanoma,> 100 µM
same,TGI,TK-10 renal,> 100 µM
same,TGI,NCI-H226 lung,> 100 µM
same,TGI,M14 melanoma,> 100 µM
same,TGI,MDA-MB-231 breast,> 100 µM
same,TGI,BT-549 breast,> 100 µM
same,TGI,UACC-257 melanoma,> 100 µM
same,TGI,SW-620 colon,> 100 µM
same,TGI,NCI-H522 lung,> 100 µM
same,TGI,CCRF-CEM leukemia,> 100 µM
same,TGI,786-0 renal,> 100 µM
same,TGI,RPMI-8226 leukemia,> 100 µM
same,TGI,CAKI-1 renal,> 100 µM
same,TGI,HS 578T breast,> 100 µM
Cc1ccc(-c2c3c(n(C4OC(CO)C(O)C(O)C4O)c(=S)c2C#N)CC(C)(C)CC3=O)cc1 (stereo not given),TGI,SN12C renal,> 100 µM
same,TGI,LOX IMVI melanoma,> 100 µM
same,TGI,TK-10 renal,> 100 µM
same,TGI,NCI-H226 lung,> 100 µM
same,TGI,M14 melanoma,> 100 µM
same,TGI,MDA-MB-231 breast,> 100 µM
same,TGI,BT-549 breast,> 100 µM
same,TGI,UACC-257 melanoma,> 100 µM
same,TGI,SW-620 colon,> 100 µM
same,TGI,NCI-H522 lung,> 100 µM
same,TGI,CCRF-CEM leukemia,> 100 µM
same,TGI,786-0 renal,> 100 µM
same,TGI,RPMI-8226 leukemia,> 100 µM
same,TGI,CAKI-1 renal,> 100 µM
same,TGI,HS 578T breast,> 100 µM
O=C1NN=C2C=C(c3ccc(Cl)cc3)CC(c3cccc(Cl)c3)C12 (stereo not given),TGI,SN12C renal,57.5 µM
same,TGI,LOX IMVI melanoma,33.4 µM
same,TGI,TK-10 renal,48.1 µM
same,TGI,NCI-H226 lung,60.6 µM
same,TGI,M14 melanoma,> 100 µM
same,TGI,MDA-MB-231 breast,42.7 µM
same,TGI,BT-549 breast,> 100 µM
same,TGI,UACC-257 melanoma,48.5 µM
same,TGI,SW-620 colon,> 100 µM
same,TGI,NCI-H522 lung,42.8 µM
same,TGI,CCRF-CEM leukemia,71.7 µM
same,TGI,786-0 renal,62.8 µM
same,TGI,RPMI-8226 leukemia,57 µM
same,TGI,CAKI-1 renal,> 100 µM
same,TGI,HS 578T breast,55 µM
